The values that follow come from publication PMC8943092, “Broad thermal spectrum metagenomic laccase with action for dye decolorization and fentin hydroxide treatment” (AMB Express, 2022).

This test has as its system LacMeta. Particulars: pH 4.0, 20 mM sodium citrate, 37 °C; copper-loaded enzyme 0.066 µM; ABTS 0.1-10 mM.

On to `CCn1c(=NN=c2sc3cc(S(=O)(=O)O)ccc3n2CC)sc2cc(S(=O)(=O)O)ccc21` [ABTS, 2,2′-azino-bis (3-ethylbenzothiazoline-6-sulfonic acid)], for which the Km was determined as 4.22 ± 0.374 mM.

The Km is the concentration of substrate that gives half-maximal velocity.
